For orientation: melting point means the temperature of the solid-liquid transition.

Data set [1] has as its system sulfonylurea herbicide-resistant Scirpus juncoides var. ohwianus. Put plainly: Paddy pot weeding test, flooded, two-leaf stage (Test Example 1). Type of data set: in vivo. The conditions noted are these: 1 g/are, three weeks after treatment, resistant biotype, Iwamisawa City, Hokkaido. The text has this:
(§1) A 5 cm×5 cm Jiffy Pot™ was charged with paddy soil, then water was introduced into each pot, seeds of sulfonylurea herbicide-sensitive Scirpus juncoides var. ohwianus, sulfonylurea herbicide-sensitive Lindernia procumbens (Krock.) Philcox, sulfonylurea herbicide-sensitive Lindernia dubia subsp. major Pennell, sulfonylurea herbicide-resistant Scirpus juncoides var. ohwianus, sulfonylurea herbicide-resistant Lindernia procumbens (Krock.) Philcox and sulfonylurea herbicide-resistant Lindernia dubia subsp. major Pennell were sowed therein and cultivated for a prescribed period under flooding conditions. When the plants reached the two-leave stage, the prescribed number of Jiffy Pots where the plants had been grown were transferred to a 150-cm^2 rectangular plastic pot, and water was introduced to a height of 3 cm, and a chemical diluent containing a compound was applied into the pot in an amount of 1 g/are. The chemical diluent was prepared by dissolving 1.5 g compound in 2 L of N,N-dimethylformamide (DMF) containing, 2% (W/V) surfactant Tween™ 20 and then diluting it with water to adjust the total volume to 10 L.

In data set [2] the test system is sulfonylurea herbicide-sensitive Lindernia dubia subsp. major Pennell. The description is as above. Type of data set: in vivo. Particulars: 1 g/are, three weeks after treatment, sensitive biotype, Makabe Town, Ibaraki Pref.
Source text: as §1

For data set [3], the system named is sulfonylurea herbicide-sensitive Scirpus juncoides var. ohwianus. The data set is described as above. It is filed as in vivo. Particulars: 1 g/are, three weeks after treatment, sensitive biotype, Kyoto Pref.
Source text: as §1

The subject of data set [4] is sulfonylurea herbicide-sensitive Lindernia procumbens (Krock.) Philcox. Described as above. The conditions noted are these: 1 g/are, three weeks after treatment, sensitive biotype, Kyoto Pref. It is filed as in vivo.
Source text: as §1

Data set [5] relates to sulfonylurea herbicide-resistant Lindernia dubia subsp. major Pennell. The data set is described as above. It is filed as in vivo. Particulars: 1 g/are, three weeks after treatment, resistant biotype, Kawanishi Town, Yamagata Pref.
Source text: as §1

The test system of data set [6] is sulfonylurea herbicide-resistant Lindernia procumbens (Krock.) Philcox. The experiment in a line: Paddy pot weeding test, flooded, two-leaf stage (Test Example 1). Type of data set: in vivo. Particulars: 1 g/are, three weeks after treatment, resistant biotype, Tajiri Town, Miyagi Pref.
Source text: as §1

Molecules are shown by their SMILES.

Regarding `CCSc1ccc2nc(C(F)(F)F)c(NC(=O)NS(=O)(=O)c3nc(OC)cc(OC)n3)n2n1` [Compound No. 11], the melting point fell in the range of 179 to 180 °C. The “R Scirpus juncoides var. ohwianus (effect index)” value in data set [1] is 5 (excellent 81 to 100). Further, the “S Lindernia dubia subsp. major Pennell (effect index)” value in data set [2] is listed as 5 (excellent 81 to 100). Besides, the “S Scirpus juncoides var. ohwianus (effect index)” value in data set [3] is 5 (excellent 81 to 100). Moreover, in data set [4], the “S Lindernia procumbens (Krock.) Philcox (effect index)” value is 5 (excellent 81 to 100). Also, in data set [5], the “R Lindernia dubia subsp. major Pennell (effect index)” value was 5 (excellent 81 to 100).

For `COc1cc(OC)nc(S(=O)(=O)NC(=O)Nc2c(C)nc3ccc(S(C)(=O)=O)nn23)n1` [Compound No. 21], the melting point is 246 to 248 °C (dec.).

`COc1cc(OC)nc(S(=O)(=O)NC(=O)Nc2c(Cl)nc3ccc(N(C)C)nn23)n1` [Compound No. 22] had a melting point of 193 to 195 °C.

`CCOc1ccc2nc(Cl)c(NC(=O)NS(=O)(=O)c3nc(OC)cc(OC)n3)n2n1` [Compound No. 23] came in with a melting point of 168 to 169 °C. Besides, in data set [1], the “R Scirpus juncoides var. ohwianus (effect index)” value was 5 (excellent 81 to 100). The “S Lindernia dubia subsp. major Pennell (effect index)” value in data set [2] is 5 (excellent 81 to 100). The “S Scirpus juncoides var. ohwianus (effect index)” value in data set [3] was 5 (excellent 81 to 100). The “S Lindernia procumbens (Krock.) Philcox (effect index)” value in data set [4] was 5 (excellent 81 to 100). Besides, in data set [5], the “R Lindernia dubia subsp. major Pennell (effect index)” value is reported as 4 (high 61 to 80).

On to `CCSc1ccc2nc(Cl)c(NC(=O)NS(=O)(=O)c3nc(OC)cc(OC)n3)n2n1` [Compound No. 25], for which the melting point lay in the range of 180 to 182 °C. In addition, the “R Scirpus juncoides var. ohwianus (effect index)” value in data set [1] is 5 (excellent 81 to 100). The “S Lindernia dubia subsp. major Pennell (effect index)” value in data set [2] is reported as 5 (excellent 81 to 100). Moreover, the “S Scirpus juncoides var. ohwianus (effect index)” value in data set [3] was 5 (excellent 81 to 100). The “S Lindernia procumbens (Krock.) Philcox (effect index)” value in data set [4] is reported as 5 (excellent 81 to 100). Further, the “R Lindernia dubia subsp. major Pennell (effect index)” value in data set [5] is 4 (high 61 to 80).

Take `COc1cc(C)nc(S(=O)(=O)NC(=O)Nc2c(Cl)nc3ccc(SC)nn23)n1` [Compound No. 27]: the melting point is 172 to 174 °C.

On to `CCCc1ccc2nc(C)c(S(=O)(=O)NC(=O)Nc3nc(OC)cc(OC)n3)n2n1` [Compound No. 36], for which, in data set [1], the “R Scirpus juncoides var. ohwianus (effect index)” value is given as 5 (excellent 81 to 100). In data set [2], the “S Lindernia dubia subsp. major Pennell (effect index)” value was 5 (excellent 81 to 100). The “R Lindernia procumbens (Krock.) Philcox (effect index)” value in data set [6] is reported as 5 (excellent 81 to 100). Moreover, the “S Scirpus juncoides var. ohwianus (effect index)” value in data set [3] is on record as 5 (excellent 81 to 100). Moreover, the “S Lindernia procumbens (Krock.) Philcox (effect index)” value in data set [4] is 5 (excellent 81 to 100). Besides, in data set [5], the “R Lindernia dubia subsp. major Pennell (effect index)” value is listed as 5 (excellent 81 to 100).

`CCCc1ccc2nc(Cl)c(S(=O)(=O)NC(=O)Nc3nc(OC)cc(OC)n3)n2n1` [Compound No. 38, 1-(2-chloro-6-n-propylimidazo[1,2-b]pyridazin-3-ylsulfonyl)-3-(4,6-dimethoxypyrimidin-2-yl)urea]: the “R Scirpus juncoides var. ohwianus (effect index)” value in data set [1] is 5 (excellent 81 to 100). The “S Lindernia dubia subsp. major Pennell (effect index)” value in data set [2] is given as 5 (excellent 81 to 100). For the same molecule, in data set [6], the “R Lindernia procumbens (Krock.) Philcox (effect index)” value is 5 (excellent 81 to 100). Besides, in data set [3], the “S Scirpus juncoides var. ohwianus (effect index)” value was 5 (excellent 81 to 100). Besides, the “S Lindernia procumbens (Krock.) Philcox (effect index)” value in data set [4] is given as 5 (excellent 81 to 100). For the same molecule, the “R Lindernia dubia subsp. major Pennell (effect index)” value in data set [5] is 5 (excellent 81 to 100).

On to `COc1cc(OC)nc(NC(=O)NS(=O)(=O)c2c(C)nc3ccc(C(C)C)nn23)n1` [Compound No. 39], for which, in data set [1], the “R Scirpus juncoides var. ohwianus (effect index)” value was 5 (excellent 81 to 100). Moreover, in data set [2], the “S Lindernia dubia subsp. major Pennell (effect index)” value was 5 (excellent 81 to 100). In addition, in data set [6], the “R Lindernia procumbens (Krock.) Philcox (effect index)” value was 5 (excellent 81 to 100). Further, the “S Scirpus juncoides var. ohwianus (effect index)” value in data set [3] is recorded as 5 (excellent 81 to 100). Also, the “S Lindernia procumbens (Krock.) Philcox (effect index)” value in data set [4] is on record as 5 (excellent 81 to 100). Moreover, the “R Lindernia dubia subsp. major Pennell (effect index)” value in data set [5] was 5 (excellent 81 to 100).

Values taken from patent US8399381B2, “Condensed heterocyclic sulfonyl urea compound, a herbicide containing the same, and a method for weed control using the same” (Sumitomo Chemical Company, Limited, priority 2002, dated 2013).
